Measurements as given in patent publication EP0693071B1, “NEW CARBOXYLIC-ACID ESTERS OF 2-AMINO-7-(1,3-DIHYDROXY-2-PROPOXYMETHYL)PURINE, THE PREPARATION OF SUCH ESTERS AND THEIR USE” (HOECHST AKTIENGESELLSCHAFT, priority 1993, dated 1994).
Where two headings read alike, the source gives them in different places.

System: Herpes simplex 1 Virus (HSV-1)
Experiment: Activity against systemic HSV-1 infection in NMRI mice, oral treatment
Assay type: in vivo, NMRI-Mäuse
Conditions: for ED50: read-out: IC50 (nach Reed und Muench); for mittlere Überlebenszeit (Tage): oral
Description: Wirkung gegen systemische Herpes simplex 1 Virus (HSV-1) Infektion: NMRI-Mäuse, spezifisch pathogenfrei, im Gewicht von 15 bis 18 g wurden intraperitoneal mit HSV-1 infiziert und anschließend mit den erfindungsgemäßen Verbindungen oral therapiert. Die Behandlung erfolgte erstmals 3 Stunden nach der Infektion und wurde zweimal täglich über 4 Tage fortgesetzt. Der Behandlungserfolg wurde anhand des Krankheitsverlaufes und der Überlebensrate gegenüber der unbehandelten Infektionskontrolle bestimmt. Letztere erhielt anstelle der erfindungsgemäßen Verbindungen physiologische Kochsalzlösung appliziert. Die Beobachtungszeit betrug zwei Wochen. Tabelle 1 zeigt die Ergebnisse dieser Untersuchung.

[1] = Human alphaherpesvirus 1, 336 h, NMRI mouse, HSV-1 i.p. infection, oral treatment, 9 doses (first 3 h after infection, then twice daily over 4 days), 2 weeks observation

With `CC(C)(C)C(=O)OCC(COC(=O)C(C)(C)C)OCn1cnc2nc(N)ncc21` [Beispiel 1, 2-Amino-7-[(1,3-bis-pivaloyloxy-2-propoxy)methyl]purin] the ED50 [1] was 19.7 µmol/kg.

`CCCCC(=O)OCC(COC(=O)CCCC)OCn1cnc2nc(N)ncc21` [Beispiel 2, 2-Amino-7-[(1,3-bis-valeroyloxy-2-propoxy)methyl]purin] was tested, and the ED50 [1] was 12 µmol/kg and the “mittlere Überlebenszeit (Tage)” value (Dosierung 9 x 10 µmol/kg) was 9 ± 1,7 Tage.

With `CCCCC(=O)OCC(CO)OCn1cnc2nc(N)ncc21` (stereo not shown) [Beispiel 3, 2-Amino-7-[(1-hydroxy-3-valeroyloxy-2-propoxy)methyl]purin] the ED50 [1] was < 9.3 µmol/kg and the “mittlere Überlebenszeit (Tage)” value (Dosierung 9 x 9,3 µmol/kg) was 10 Tage.

With `COCC(=O)OCC(COC(=O)COC)OCn1cnc2nc(N)ncc21` [Beispiel 6, 2-Amino-7-[(1,3-bis-methoxyacetoxy-2-propoxy)methyl]purin] the ED50 [1] was < 10 µmol/kg and the “mittlere Überlebenszeit (Tage)” value (Dosierung 9 x 10 µmol/kg) was 9 Tage.

`CCOCC(=O)OCC(COC(=O)COCC)OCn1cnc2nc(N)ncc21` [Beispiel 7, 2-Amino-7-[(1,3-bis-ethoxyacetoxy-2-propoxy)methyl]purin] gave an ED50 [1] of 13.2 µmol/kg.

With `Nc1ncc2c(ncn2COC(COC(=O)C2CCCCC2)COC(=O)C2CCCCC2)n1` [Beispiel 9, 2-Amino-7-[(1,3-bis-cyclohexancarbonyloxy-2-propoxy)methyl]purin] the ED50 [1] was 5.6 µmol/kg.

Compound `Nc1ncc2c(ncn2COC(CO)COC(=O)C2CCCCC2)n1` (stereo not shown) [Beispiel 10, 2-Amino-7-[(1-cyclohexancarbonyloxy-3-hydroxy-2-propoxy)methyl] purin] has an ED50 [1] of 3.6 µmol/kg.

`Nc1ncc2c(ncn2COC(COC(=O)c2ccccc2)COC(=O)c2ccccc2)n1` [Beispiel 11, 2-Amino-7-[(1,3-bis-benzoyloxy-2-propoxy)methyl]purin] gave an ED50 [1] of 17.3 µmol/kg.

For `Nc1ncc2c(ncn2COC(COC(=O)Cc2ccccc2)COC(=O)Cc2ccccc2)n1` [Beispiel 12, 2-Amino-7-[(1,3-bis-phenylacetoxy-2-propoxy)methyl]purin], the ED50 (Human alphaherpesvirus 1, po, 336 h) was < 10 µmol/kg.

Compound `Nc1ncc2c(ncn2COC(COC(=O)c2ccsc2)COC(=O)c2ccsc2)n1` [Beispiel 13] has an ED50 [1] of 5.6 µmol/kg.

`Nc1ncc2c(ncn2COC(CO)COC(=O)c2ccsc2)n1` (stereo not shown) [Beispiel 14] was tested, and the ED50 [1] was 11.5 µmol/kg.

`Nc1ncc2c(ncn2COC(COC(=O)Cc2cccnc2)COC(=O)Cc2cccnc2)n1` [Beispiel 15] gave an ED50 [1] of 10 µmol/kg.

With `Nc1ncc2c(ncn2COC(CO)CO)n1` [Formel 1, R1=R2=H (=Verb. der Formel 1'), 2-Amino-7-[(1,3-dihydroxy-2-propoxy)methyl]purin, reference compound] the ED50 [1] was 34.5 µmol/kg.
